The test system of one assay is CCRF-HSB-2. The assay can be described thus: Antitumor activity against human CCRF-HSB2 cells by MTT assay. Type of assay: functional, cell-based.
The test system of another assay is KB. The assay can be described thus: Antitumor activity against human KB cells by MTT assay. It counts as functional, cell-based.

The structures appear in SMILES notation. In brackets after ≈: the same amount, converted by molar mass.

Usually IC50 stands for the concentration needed to halve the response being measured. Higher therefore signals weaker potency in that assay. On to `CSc1nc2nc3ccccc3cc2c(=O)[nH]1`, for which the IC50 was 23.2 µg/mL (≈ 95.4 µM) in the assay on CCRF-HSB-2 and 44.1 µg/mL (≈ 181 µM) with KB.

On to `CSc1nc2n(C)c3c(C)cccc3[n+]([O-])c-2c(=O)n1`, for which the IC50 in the assay on CCRF-HSB-2 turned out to be 1.46 µg/mL (≈ 5.06 µM); with KB, 0.61 µg/mL (≈ 2.12 µM).

On to `COc1ccc2c(c1)[n+]([O-])c1c(=O)nc(SC)nc-1n2C`, for which the IC50 in the assay on CCRF-HSB-2 amounted to 9.84 µg/mL (≈ 32.3 µM); in the assay on KB, 11 µg/mL (≈ 36.1 µM).

In the case of `COc1ccc2c(c1)n(C)c1nc(SC)nc(=O)c-1[n+]2[O-]`, the IC50 with CCRF-HSB-2 turned out to be 10 µg/mL (≈ 32.9 µM); in the assay with KB, 12.5 µg/mL (≈ 41.1 µM).

For the compound `CSc1nc2n(C)c3ccc(C)cc3[n+]([O-])c-2c(=O)n1`, the 50% inhibitory concentration (IC50) is 17.1 µg/mL (≈ 59.3 µM) with CCRF-HSB-2 and 27.7 µg/mL (≈ 96.1 µM) in the assay with KB.

Consider `CSc1nc2n(C)c3ccccc3[n+]([O-])c-2c(=O)n1`, for which the IC50 in the assay with CCRF-HSB-2 amounted to 1.56 µg/mL (≈ 5.69 µM); with KB, 1.44 µg/mL (≈ 5.25 µM).

In the case of `CNc1nc2n(C)c3ccccc3cc-2c(=O)n1`, the IC50 came to 2.7 µg/mL (≈ 11.2 µM) in the assay on CCRF-HSB-2 and 14.5 µg/mL (≈ 60.3 µM) in the assay with KB.

For the compound `CCn1c2nc(=O)[nH]c(=O)c-2nc2ccccc21`, the concentration for half-maximal inhibition (IC50) turned out to be 1.57 µg/mL (≈ 6.48 µM) in the assay on CCRF-HSB-2 and 1.89 µg/mL (≈ 7.8 µM) in the assay on KB.

Turning to `CCn1c(SC)nc2nc3c(C)cc(C)cc3[n+]([O-])c2c1=O`, the IC50 in the assay with CCRF-HSB-2 is 5.9 µg/mL (≈ 18.6 µM); with KB it was 10 µg/mL (≈ 31.6 µM).

In the case of `Cc1ccc2c(c1)[n+]([O-])c1c(=O)nc(NCCO)nc-1n2C`, the IC50 in the assay on CCRF-HSB-2 amounted to 1.46 µg/mL (≈ 4.85 µM); in the assay with KB, 1.7 µg/mL (≈ 5.64 µM).

For `CSc1nc2nc3ccccc3[n+]([O-])c2c(=O)n1C`, the IC50 with CCRF-HSB-2 stood at 8.63 µg/mL (≈ 31.5 µM); in the assay on KB, 9.31 µg/mL (≈ 33.9 µM).

Consider `CN(C)c1nc2nc3ccccc3nc2c(=O)[nH]1`, for which the figures for the IC50 in the assay on CCRF-HSB-2 and in the assay on KB were 51.2 µg/mL (≈ 212 µM) and 63.1 µg/mL (≈ 262 µM), respectively.

Take `COc1ccc2nc3nc(N4CCOCC4)[nH]c(=O)c3nc2c1`: the IC50 in the assay with CCRF-HSB-2 was determined as 41.4 µg/mL (≈ 132 µM); in the assay with KB, 71.7 µg/mL (≈ 229 µM).

With `CSc1nc2n(C)c3ccc(Cl)cc3[n+]([O-])c-2c(=O)n1`, the IC50 was found to be 6.66 µg/mL (≈ 21.6 µM) in the assay with CCRF-HSB-2 and 10.8 µg/mL (≈ 35 µM) in the assay with KB.

With `CCOC(=O)Cn1c(SC)nc2nc3ccccc3[n+]([O-])c2c1=O`, the IC50 in the assay with CCRF-HSB-2 was 34.2 µg/mL (≈ 98.7 µM); in the assay with KB, 54.8 µg/mL (≈ 158 µM).

Regarding `CSc1nc2nc3ccc(C)cc3[n+]([O-])c2c(=O)[nH]1`, the IC50 with CCRF-HSB-2 was found to be 5.86 µg/mL (≈ 21.4 µM); in the assay with KB, 5.8 µg/mL (≈ 21.1 µM).

In the case of `CSc1nc2nc3c(C)cc(C)cc3[n+]([O-])c2c(=O)[nH]1`, the IC50 in the assay on CCRF-HSB-2 was determined as 6.29 µg/mL (≈ 21.8 µM); with KB it was 11.8 µg/mL (≈ 40.9 µM).

For the compound `COc1ccc2nc3nc(SC)[nH]c(=O)c3[n+]([O-])c2c1`, the values for the IC50 with CCRF-HSB-2 and in the assay with KB were 4.11 µg/mL (≈ 14.2 µM) and 5.35 µg/mL (≈ 18.4 µM), respectively.

In the case of `CSc1nc2n(C)c3cc(C)c(C)cc3[n+]([O-])c-2c(=O)n1`, the IC50 with CCRF-HSB-2 turned out to be 14.3 µg/mL (≈ 47.3 µM); in the assay with KB it was 30 µg/mL (≈ 99.2 µM).

For `CNc1nc2n(C)c3ccccc3[n+]([O-])c-2c(=O)n1`, the results for the IC50 in the assay with CCRF-HSB-2 and in the assay on KB were 1.74 µg/mL (≈ 6.76 µM) and 6.93 µg/mL (≈ 26.9 µM), respectively.

Consider `CCn1c2nc(NCC(C)C)nc(=O)c-2[n+]([O-])c2ccccc21`, for which the IC50 in the assay on CCRF-HSB-2 worked out at 6 µg/mL (≈ 19.1 µM); with KB, 8.1 µg/mL (≈ 25.8 µM).

As for `Cn1c2nc(=O)[nH]c(=O)c-2nc2ccccc21`, the IC50 amounted to 1.8 µg/mL (≈ 7.89 µM) with CCRF-HSB-2 and 2.1 µg/mL (≈ 9.2 µM) in the assay with KB.

As to `CCn1c2nc(SC)nc(=O)c-2[n+]([O-])c2ccccc21`, the IC50 with CCRF-HSB-2 came to 3.72 µg/mL (≈ 12.9 µM); with KB, 8.19 µg/mL (≈ 28.4 µM).

As to `CSc1nc2nc3ccccc3[n+]([O-])c2c(=O)[nH]1`, the IC50 in the assay with CCRF-HSB-2 is 6.77 µg/mL (≈ 26 µM); in the assay on KB, 6.76 µg/mL (≈ 26 µM).

In the case of `COc1ccc2c(c1)[n+]([O-])c1c(=O)[nH]c(=O)nc-1n2C`, the IC50 with CCRF-HSB-2 amounted to 5.1 µg/mL (≈ 18.6 µM); in the assay on KB, 6.2 µg/mL (≈ 22.6 µM).

`CCn1c2nc(SC)nc(=O)c-2[n+]([O-])c2cc(C)ccc21`: the IC50 is 34.7 µg/mL (≈ 115 µM) in the assay with CCRF-HSB-2 and 46.3 µg/mL (≈ 153 µM) in the assay with KB.

In the case of `Cc1ccc2c(c1)[n+]([O-])c1c(=O)nc(NC3CCCCC3)nc-1n2C`, the half-maximal inhibitory concentration (IC50) in the assay with CCRF-HSB-2 turned out to be 7.1 µg/mL (≈ 20.9 µM); in the assay with KB, 33.7 µg/mL (≈ 99.3 µM).

Consider `COc1ccc2c(c1)[n+]([O-])c1c(=O)nc(N3CCCCC3)nc-1n2C`, for which the IC50 in the assay on CCRF-HSB-2 came out at 6.18 µg/mL (≈ 18.1 µM); with KB, 27.6 µg/mL (≈ 80.9 µM).

Regarding `CSc1nc2nc3ccc(C)cc3[n+]([O-])c2c(=O)n1C`, the IC50 in the assay with CCRF-HSB-2 was 7.74 µg/mL (≈ 26.8 µM); with KB, 13.4 µg/mL (≈ 46.5 µM).

Regarding `CSc1nc2nc3c(C)cc(C)cc3[n+]([O-])c2c(=O)n1C`, the IC50 in the assay with CCRF-HSB-2 was determined as 8.96 µg/mL (≈ 29.6 µM); in the assay on KB, 14.2 µg/mL (≈ 47 µM).

For the compound `Nc1ccn([C@@H]2O[C@H](CO)[C@@H](O)[C@@H]2O)c(=O)n1` [CYTARABINE], the values for the IC50 in the assay with CCRF-HSB-2 and in the assay with KB were 0.047 µg/mL (≈ 0.193 µM) and 0.23 µg/mL (≈ 0.946 µM), respectively.

The values above are taken from ChEMBL document CHEMBL1143144, “Antitumor studies. Part 4: Design, synthesis, antitumor activity, and molecular docking study of novel 2-substituted 2-deoxoflavin-5-oxides, 2-deoxoalloxazine-5-oxides, and their 5-deaza analogs” (Bioorg Med Chem, 2008).
